This passage reports Activity results from ChEMBL document CHEMBL5385976, “Recognition of arylmethylidene derivatives of imidazothiazolotriazinones as novel tubulin polymerization inhibitors” (RSC Med Chem, 2024).

SMILES strings stand for the structures.

This test relates to MDA-MB-468. Nature of the test: Antiproliferative activity against human MDA-MB-468 cells assessed as mean cell growth at 10 uM incubated for 48 hrs by SRB assay relative to control. In kind it is functional. A general note: The SRB assay estimates cell density from bound dye.

As to `CCN1C(=O)N(CC)C2Nn3c(s/c(=C\c4ccc([N+](=O)[O-])cc4)c3=O)=NC21` (stereo unspecified), the Activity amounted to 67%.
